Measured values taken from patent US9561228B2 (Celgene Avilomics Research, Inc., priority 2013, dated 2017).

tested on: ERK1/2 phosphorylation of p90RSK in HCT116 cells; assay: Detection of total and phospho-RSK by MSD ELISA (HCT116); format: cell-based; conditions: Homo sapiens, HCT-116, read-out: ERK1/ERK2 PRSK HCT116 EC50
Method in brief: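 ERK1/2 activity read in cells as p90RSK phosphorylation: lysates from HCT116 cells given compound for 2 h at 37° C were captured on MSD plates. Detection used a pSer380 RSK or a total RSK antibody with SulfoTag secondaries.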

SMILES | EC50 [µM]
C=CC(=O)Nc1cc(C)ccc1Nc1nc(Nc2cc(C)nc(OC)c2)ncc1C(F)(F)F [Compound I-295, N-(2-((2-((2-methoxy-6-methylpyridin-4-yl)amino)-5-(trifluoromethyl)pyrimidin-4-yl)amino)-5-methylphenyl)acrylamide] | < 0.1
C=CC(=O)Nc1cc(C)ccc1Nc1nc(Nc2cc(OC)nc(N(C)C3CC3)c2)ncc1C(F)(F)F [Compound I-342, N-(2-((2-((2-(cyclopropyl(methyl)amino)-6-methoxypyridin-4-yl)amino)-5-(trifluoromethyl)pyrimidin-4-yl)amino)-5-methylphenyl)acrylamide] | 0.101 to 0.5
C=CC(=O)Nc1ccccc1Nc1nc(Nc2cc(OC)nc(N3CCN(C)CC3)c2)ncc1C(F)(F)F [Compound I-324, N-(2-((2-((2-methoxy-6-(4-methylpiperazin-1-yl)pyridin-4-yl)amino)-5-(trifluoromethyl)pyrimidin-4-yl)amino)phenyl)acrylamide] | < 0.1
C=CC(=O)Nc1ccccc1Nc1nc(Nc2ccnnc2)ncc1C(F)(F)F [Compound I-293, N-(2-((2-(Pyridazin-4-ylamino)-5-(trifluoromethyl)pyrimidin-4-yl)amino)phenyl)acrylamide] | < 0.1
C=CC(=O)Nc1ccccc1Nc1nc(Nc2cc(OC)ccc2C)ncc1C(F)(F)F [Compound I-340, N-(2-((2-((5-methoxy-2-methylphenyl)amino)-5-(trifluoromethyl)pyrimidin-4-yl)amino)phenyl)acrylamide] | 0.101 to 0.5
C=CC(=O)Nc1ccccc1Nc1nc(Nc2cc(NCCOC)nc(OC)c2)ncc1C(F)(F)F [Compound I-286, N-(2-((2-((2-Methoxy-6-((2-methoxyethyl)amino)pyridin-4-yl)amino)-5-(trifluoromethyl)pyrimidin-4-yl)amino)phenyl)acrylamide] | < 0.1
C=CC(=O)Nc1cc(C)ccc1Nc1nc(Nc2cc(NC3CC3)nc(OC)c2)ncc1C(F)(F)F [Compound I-337, N-(2-((2-((2-(cyclopropylamino)-6-methoxypyridin-4-yl)amino)-5-(trifluoromethyl)pyrimidin-4-yl)amino)-5-methylphenyl)acrylamide] | < 0.1
C=CC(=O)Nc1cc(C)ccc1Nc1nc(Nc2cc(N[C@H]3CC[C@@H](O)CC3)nc(OC)c2)ncc1C(F)(F)F [Compound I-326, N-(2-((2-((2-((cis-4-hydroxycyclohexyl)amino)-6-methoxypyridin-4-yl)amino)-5-(trifluoromethyl)pyrimidin-4-yl)amino)-5-methylphenyl)acrylamide] | < 0.1
C=CC(=O)Nc1cc(C)ccc1Nc1nc(Nc2cc(OC)cc(OC)c2)ncc1C(F)(F)F [Compound I-339, N-(2-((2-((3,5-dimethoxyphenyl)amino)-5-(trifluoromethyl)pyrimidin-4-yl)amino)-5-methylphenyl)acrylamide] | 0.101 to 0.5
C=CC(=O)Nc1ccccc1Nc1nc(Nc2cc(F)ccc2C)ncc1C(F)(F)F [Compound I-285, N-(2-((2-((5-Fluoro-2-methylphenyl)amino)-5-(trifluoromethyl)pyrimidin-4-yl)amino)phenyl)acrylamide] | > 1
C=CC(=O)Nc1cc(C)ccc1Nc1nc(Nc2cc(OC)nc(N3CCN(C(C)=O)CC3)c2)ncc1Cl [Compound I-296, N-(2-((2-((2-(4-acetylpiperazin-1-yl)-6-methoxypyridin-4-yl)amino)-5-chloropyrimidin-4-yl)amino)-5-methylphenyl)acrylamide] | < 0.1
C=CC(=O)Nc1ccccc1Nc1nc(Nc2cc(OC)nc(N3CCCCC3)c2)ncc1C(F)(F)F [Compound I-282, N-(2-((2-((2-Methoxy-6-(piperidin-1-yl)pyridin-4-yl)amino)-5-(trifluoromethyl)pyrimidin-4-yl)amino)phenyl)acrylamide] | < 0.1
C=CC(=O)Nc1ccccc1Nc1nc(Nc2cc(OC)cc(OC)c2)ncc1C(F)(F)F [Compound I-338, N-(2-((2-((3,5-dimethoxyphenyl)amino)-5-(trifluoromethyl)pyrimidin-4-yl)amino)phenyl)acrylamide] | < 0.1
C=CC(=O)Nc1cc(C)ccc1Nc1nc(Nc2ccnc(F)c2)ncc1C(F)(F)F [Compound I-288, N-(2-((2-((2-Fluoropyridin-4-yl)amino)-5-(trifluoromethyl)pyrimidin-4-yl)amino)-5-methylphenyl)acrylamide] | 0.101 to 0.5
C=CC(=O)Nc1cc(F)ccc1Nc1nc(Nc2cc(OC)ncc2C)ncc1C(F)(F)F [Compound I-322, N-(5-fluoro-2-((2-((2-methoxy-5-methylpyridin-4-yl)amino)-5-(trifluoromethyl)pyrimidin-4-yl)amino)phenyl)acrylamide] | 0.101 to 0.5
C=CC(=O)Nc1cc(OC)ccc1Nc1nc(Nc2cc(OC)ncc2C)ncc1Cl [Compound I-242, N-(2-((5-chloro-2-((2-methoxy-5-methylpyridin-4-yl)amino)pyrimidin-4-yl)amino)-5-methoxyphenyl)acrylamide] | > 1
C=CC(=O)Nc1cc(C)ccc1Nc1nc(Nc2cc(OC)nc(N3CCN(C)CC3)c2)ncc1C(F)(F)F [Compound I-325, N-(2-((2-((2-methoxy-6-(4-methylpiperazin-1-yl)pyridin-4-yl)amino)-5-(trifluoromethyl)pyrimidin-4-yl)amino)-5-methylphenyl)acrylamide] | < 0.1

Now from value to compound:

EC50 [µM] | SMILES
0.101 to 0.5 | C=CC(=O)Nc1cc(C(F)(F)F)ccc1Nc1nc(Nc2cc(OC)ncc2C)ncc1C(F)(F)F [Compound I-323, N-(2-((2-((2-methoxy-5-methylpyridin-4-yl)amino)-5-(trifluoromethyl)pyrimidin-4-yl)amino)-5-(trifluoromethyl)phenyl)acrylamide]
> 1 | C=CS(=O)(=O)Nc1cc(C)ccc1Nc1nc(Nc2cc(OC)ncc2C)ncc1C(F)(F)F [Compound I-333, N-(2-((2-((2-methoxy-5-methylpyridin-4-yl)amino)-5-(trifluoromethyl)pyrimidin-4-yl)amino)-5-methylphenyl)ethenesulfonamide]
< 0.1 | C=CC(=O)Nc1cc(OC)ccc1Nc1nc(Nc2cc(OC)ncc2C)ncc1C(F)(F)F [Compound I-284, N-(5-Methoxy-2-((2-((2-methoxy-5-methylpyridin-4-yl)amino)-5-(trifluoromethyl)pyrimidin-4-yl)amino)phenyl)acrylamide]
0.101 to 0.5 | C=CC(=O)Nc1cc(C)ccc1Nc1nc(Nc2cc(OC)nc(N(C)CCOC)c2)ncc1C(F)(F)F [Compound I-336, N-(2-((2-((2-methoxy-6-((2-methoxyethyl)(methyl)amino)pyridin-4-yl)amino)-5-(trifluoromethyl)pyrimidin-4-yl)amino)-5-methylphenyl)acrylamide]
0.101 to 0.5 | C=CC(=O)Nc1cc(C)ccc1Nc1nc(Nc2cc(OC)ncc2C)ncc1C(F)(F)F [Compound I-90, N-(2-((2-((2-Methoxy-5-methylpyridin-4-yl)amino)-5-(trifluoromethyl)pyrimidin-4-yl)amino)-5-methylphenyl)acrylamide]
< 0.1 | C=CC(=O)Nc1ccccc1Nc1nc(Nc2cc(OC)nc(OCCOC)c2)ncc1C(F)(F)F [Compound I-283, N-(2-((2-((2-Methoxy-6-(2-methoxyethoxyl)pyridin-4-yl)amino)-5-(trifluoromethyl)pyrimidin-4-yl)amino)phenyl)acrylamide]
0.101 to 0.5 | C=CC(=O)Nc1ccccc1Nc1nc(Nc2ccnc(F)c2)ncc1C(F)(F)F [Compound I-287, N-(2-((2-((2-Fluoropyridin-4-yl)amino)-5-(trifluoromethyl)pyrimidin-4-yl)amino)phenyl)acrylamide]
< 0.1 | C=CC(=O)Nc1cc(OC)ccc1Nc1nc(Nc2cc(OC)nc(N3CCN(C(C)=O)CC3)c2)ncc1C(F)(F)F [Compound I-91, N-(2-((2-((2-(4-Acetylpiperazin-1-yl)-6-methoxypyridin-4-yl)amino)-5-(trifluoromethyl)pyrimidin-4-yl)amino)-5-methoxyphenyl)acrylamide]
< 0.1 | C=CC(=O)Nc1ccccc1Nc1nc(Nc2cc(OC)nc(N3CCCC3)c2)ncc1C(F)(F)F [Compound I-281, N-(2-((2-((2-Methoxy-6-(pyrrolidin-1-yl)pyridin-4-yl)amino)-5-(trifluoromethyl)pyrimidin-4-yl)amino)phenyl)acrylamide]
< 0.1 | C=CC(=O)Nc1cc(OC)ccc1Nc1nc(Nc2cc(OC)nc(N3CCN(C)CC3)c2)ncc1C(F)(F)F [Compound I-334, N-(5-methoxy-2-((2-((2-methoxy-6-(4-methylpiperazin-1-yl)pyridin-4-yl)amino)-5-(trifluoromethyl)pyrimidin-4-yl)amino)phenyl)acrylamide]
< 0.1 | C=CC(=O)Nc1ccccc1Nc1nc(Nc2cc(N[C@H]3CC[C@@H](O)CC3)nc(OC)c2)ncc1C(F)(F)F [Compound I-292]
< 0.1 | C=CC(=O)Nc1cc(C)ccc1Nc1nc(Nc2cc(OC)nc(N3CC(O)C3)c2)ncc1C(F)(F)F [Compound I-328, N-(2-((2-((2-(3-hydroxyazetidin-1-yl)-6-methoxypyridin-4-yl)amino)-5-(trifluoromethyl)pyrimidin-4-yl)amino)-5-methylphenyl)acrylamide]
> 1 | C=CC(=O)Nc1cc(C)ccc1Nc1nc(Nc2cc(OC)ccc2C)ncc1C(F)(F)F [Compound I-341, N-(2-((2-((5-methoxy-2-methylphenyl)amino)-5-(trifluoromethyl)pyrimidin-4-yl)amino)-5-methylphenyl)acrylamide]
< 0.1 | C=CC(=O)Nc1ccccc1Nc1nc(Nc2cc(OC)nc(N3CCS(=O)(=O)CC3)c2)ncc1C(F)(F)F [Compound I-291, N-(2-((2-((2-(1,1-Dioxidothiomorpholino)-6-methoxypyridin-4-yl)amino)-5-(trifluoromethyl)pyrimidin-4-yl)amino)phenyl)acrylamide]
